The results in this text go back to US20130096160A1, “ARYLTHIAZOLYL PIPERIDINES AND RELATED COMPOUNDS AS MODULATORS OF SURVIVAL MOTOR NEURON (SMN) PROTEIN PRODUCTION” (Secretary, Department of Health and Human Services, priority 2010, published 2013).

Molecules are shown by their SMILES.

For series [1] the following is noted: mouse, microsomes, 1 h, 1 μM, pH 7.4. The method, then:
The test agent is incubated at 1 μM in duplicate with mouse microsomes at 37° C. for 60 min. The reaction contains 0.3 mg/mL microsomal protein in 100 mM potassium phosphate, 2 mM NADPH, 3 mM MgCl2, pH 7.4. A control is run for each test agent omitting NADPH to detect NADPH-free degradation. At indicated times, an aliquot is removed from each experimental and control reaction and mixed with an equal volume of ice-cold Stop Solution (0.3% acetic acid in acetonitrile containing haloperidol, diclofenac, or other internal standard). Stopped reactions are incubated at least ten minutes at −20° C., and an additional volume of water is added.
The samples are centrifuged to remove precipitated protein, and the supernatants are analyzed by LC/MS/MS, as described above, to quantitate the remaining parent. Data are reported as % remaining by dividing by the time zero concentration value.

For the next series, the system named is SMN2-luciferase reporter. In words: SMN2-luciferase reporter qHTS assay. It is filed as cell-based, human. Set-up: key to Curve Class: A curve class of 1.1 is a full agonist/antagonist; a curve class of 4 indicates the compound is inactive. As to conditions: for Curve Class: agonist/antagonist character of the concentration-response, lower values = more significant concentration-response; for Increased SMN2 activity: percent increase (or decrease) in SMN2 levels compared to control in which no test compound is added. The essentials: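 SMN2 exon-7 splicing firefly-luciferase reporter cell line, ~2000 cells/well in phenol-red-free DMEM with 10% serum, allowed to adhere 10–12 h, then exposed to compounds for 2 days at 37 C, 5% CO2. Seven-point five-fold dilution series (e.g. 50 μM to 3.2 nM), OneGlo luminescence read, curves fitted to Hill equation.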

The test system of another series is human SMN protein. In words: Western blot of SMN protein in SMA patient fibroblasts (3813). It is filed as cell-based. As to conditions: 3813 fibroblasts, quantitative western blotting, different doses, FIG. 4. The method, then: Type I spinal muscular atrophy (SMA)-affected human primary fibroblasts (#GM03813) and carrier parents (#GM03814, parent and #GM03815, […]) are obtained live with low passage number from Coriell Cell Repositories. […] For detection of SMN protein in patient fibroblasts, 8,000 cells per cm^2 are plated 24 hours prior to drug addition. Fresh media and compound are added every 24 hours. After 72 hours, cells are harvested, washed with cold PBS, and lysed. Samples are subjected to polyacrylamide gel electrophoresis (PAGE). It is determined that 10 μg total protein per lane is within the linear range for immunoblot detection of SMN and alpha-tubulin. Western blots of the gel are probed for SMN with the 4B7 mouse monoclonal antibody (from the lab of Christian Lorson). A goat anti-mouse antibody (Santa Cruz Biotechnology/#sc-2005) conjugated to horseradish peroxidase (HRP) is used as the secondary antibody. Quantification of protein is performed by detecting chemiluminescence with a Fujifilm LAS-4000 Multifunctional Imaging System. […] We incubated a fibroblast cell line from a type I SMA patient (3813 cell line) with different doses of analogues and assessed the SMN protein level by quantitative western blotting (FIG. 4). We observed that analogue 8 m at concentration of 37 nanomolar increased the SMN protein level by 2-3 fold. […] This could be due with the intrinsic mechanism of action or to other causes, such us concentration dependent compound solubility.

With `CN(C)c1cccc(-c2csc(N3CCC(C(N)=O)CC3)n2)c1` [Example 63, 1-(4-(3-(Dimethylamino)Phenyl)Thiazol-2-yl)Piperidine-4-Carboxamide], in series [1], the “Minus NADPH Parent remaining 1st” value amounted to 69%, the “Minus NADPH Parent remaining 2nd” value is 66%, the “Minus NADPH Parent remaining mean” value turned out to be 67% and the “Plus NADPH Parent remaining 1st” value was 0%. Moreover, in series [1], the “Plus NADPH Parent remaining 2nd” value turned out to be 0% and the “Plus NADPH Parent remaining mean” value is 0%. Also, in the series with SMN2-luciferase reporter, the “Curve Class” value came to 1.1 and the “Increased SMN2 activity” value is 504%.

On to `Cc1ccc(-c2cnc(N3CCC(C(N)=O)CC3)s2)cc1` [Example 119, 1-(5-P-Tolylthiazol-2-yl)Piperidine-4-Carboxamide], for which the “SMN protein level versus dose (in words)” value in the series on human SMN protein was “up-regulation of SMN protein at concentrations ranging between 37 nM and 333 nM”. Further, in the series on SMN2-luciferase reporter, the “Curve Class” value was found to be 1.1 and the “Increased SMN2 activity” value turned out to be 609.4%.

With `CC(C)Oc1cccc(-c2cnc(N3CCC(C(N)=O)CC3)s2)c1` [Example 123, 1-(5-(3-Isopropoxyphenyl)Thiazol-2-yl)Piperidine-4-Carboxamide], the “SMN protein level versus dose (in words)” value in the series with human SMN protein was “up-regulation of SMN protein at concentrations ranging between 37 nM and 333 nM”. In the series with SMN2-luciferase reporter, the “Curve Class” value is given as 1.1 and the “Increased SMN2 activity” value is on record as 709.6%.

Take `NC(=O)C1CCN(c2nc(-c3ccc4c(c3)OCCO4)cs2)CC1` [Example 48, 1-(4-(2,3-Dihydrobenzo[B][1,4]Dioxin-6-yl)Thiazol-2-yl)Piperidine-4-Carboxamide]: in series [1], the “Minus NADPH Parent remaining 1st” value is 16%, the “Minus NADPH Parent remaining 2nd” value was 15%, the “Minus NADPH Parent remaining mean” value was found to be 16% and the “Plus NADPH Parent remaining 1st” value worked out at 1%. In addition, in series [1], the “Plus NADPH Parent remaining 2nd” value worked out at 0% and the “Plus NADPH Parent remaining mean” value amounted to 1%. In the series with SMN2-luciferase reporter, the “Curve Class” value was found to be 1.1 and the “Increased SMN2 activity” value worked out at 459%.

Consider `O=C(Nc1ccccc1)C1CCN(c2ncc(-c3ccc4c(c3)OCCCO4)s2)CC1` [Example 151, 1-(5-(3,4-Dihydro-2H-Benzo[B][1,4]Dioxepin-7-yl)Thiazol-2-yl)-N-Phenylpiperidine-4-Carboxamide], for which the “SMN protein level versus dose (in words)” value in the series on human SMN protein is “up-regulation of SMN protein at concentrations ranging between 37 nM and 333 nM”. Besides, in the series on SMN2-luciferase reporter, the “Curve Class” value amounted to 1.1 and the “Increased SMN2 activity” value was found to be 353%.

For `NC(=O)C1CCN(c2nc(-c3ccc(Br)cc3)cs2)CC1` [Example 23, 1-(4-(4-Bromophenyl)Thiazol-2-yl)Piperidine-4-Carboxamide], in series [1], the “Minus NADPH Parent remaining 1st” value was found to be 68%, the “Minus NADPH Parent remaining 2nd” value was determined as 51%, the “Minus NADPH Parent remaining mean” value is 59% and the “Plus NADPH Parent remaining 1st” value is reported as 55%. Further, in series [1], the “Plus NADPH Parent remaining 2nd” value is recorded as 43% and the “Plus NADPH Parent remaining mean” value is reported as 49%. In the series on SMN2-luciferase reporter, the “Curve Class” value worked out at 1.1 and the “Increased SMN2 activity” value was found to be 267.7%.

As to `O=C(O)C1CCN(c2nc(-c3ccc(Br)cc3)cs2)CC1` [Example 69, 1-(4-(4-Bromophenyl)Thiazol-2-yl)Piperidine-4-Carboxylic Acid], in series [1], the “Minus NADPH Parent remaining 1st” value is listed as 90%, the “Minus NADPH Parent remaining 2nd” value turned out to be 101%, the “Minus NADPH Parent remaining mean” value is recorded as 95% and the “Plus NADPH Parent remaining 1st” value is given as 76%. In addition, in series [1], the “Plus NADPH Parent remaining 2nd” value is listed as 85% and the “Plus NADPH Parent remaining mean” value is 81%. In the series on SMN2-luciferase reporter, the “Curve Class” value came to 1.1 and the “Increased SMN2 activity” value is 554.58%.

In the case of `NC(=O)C1CCN(c2nc(-c3ccc([N+](=O)[O-])cc3)cs2)CC1` [Example 29, 1-(4-(4-Nitrophenyl)Thiazol-2-yl)Piperidine-4-Carboxamide], in the series with SMN2-luciferase reporter, the “Curve Class” value worked out at 2.1 and the “Increased SMN2 activity” value is on record as 254.3%.

Turning to `CN(C)c1cccc(-c2cnc(N3CCC(C(N)=O)CC3)s2)c1` [Example 88, 1-(5-(3-(Dimethylamino)Phenyl)Thiazol-2-yl)Piperidine-4-Carboxamide], in the series on SMN2-luciferase reporter, the “Curve Class” value came to 1.1 and the “Increased SMN2 activity” value is 550.44%.

As for `NC(=O)N1CCN(c2nc(-c3ccc(Br)cc3)cs2)CC1` [Example 118, 4-(4-(4-Bromophenyl)Thiazol-2-yl)Piperazine-1-Carboxamide], in the series with SMN2-luciferase reporter, the “Curve Class” value is reported as 2.1 and the “Increased SMN2 activity” value is 88.79%.

For `NC(=O)C1CCN(c2nc(-c3cccc(C(F)(F)F)c3)cs2)CC1` [Example 81, 1-(4-(3-(Trifluoromethyl)Phenyl)Thiazol-2-yl)Piperidine-4-Carboxamide], in the series with SMN2-luciferase reporter, the “Curve Class” value turned out to be 2.2 and the “Increased SMN2 activity” value was 100%.

With `CN(C)c1cccc(-c2cc(N3CCC(C(N)=O)CC3)ncn2)c1` [Example 143, 1-(6-(3-(Dimethylamino)Phenyl)Pyrimidin-4-yl)Piperidine-4-Carboxamide], in the series on SMN2-luciferase reporter, the “Curve Class” value is 2.1 and the “Increased SMN2 activity” value came to 81.27%.

Consider `CN(C)c1cccc(-c2nccc(N3CCC(C(N)=O)CC3)n2)c1` [Example 104, 1-(2-(3-(Dimethylamino)Phenyl)Pyrimidin-4-yl)Piperidine-4-Carboxamide], for which, in the series on SMN2-luciferase reporter, the “Curve Class” value is recorded as 2.1 and the “Increased SMN2 activity” value stood at 306.3%.

On to `O=C(Nc1ccccc1)C1CCN(c2nc(-c3ccc(Br)cc3)cs2)CC1` [Example 72, 1-(4-(4-Bromophenyl)Thiazol-2-yl)-N-Phenylpiperidine-4-Carboxamide], for which, in the series with SMN2-luciferase reporter, the “Curve Class” value is on record as 1.1 and the “Increased SMN2 activity” value is on record as 262.4%.

`NC(=O)C1CCN(c2ncc(-c3cccc(F)c3)s2)CC1` [Example 121, 1-(5-(3-Fluorophenyl)Thiazol-2-yl)Piperidine-4-Carboxamide]: in the series on SMN2-luciferase reporter, the “Curve Class” value is recorded as 1.1 and the “Increased SMN2 activity” value is given as 601.5%.

Take `Cc1ccc(-c2nnc(N3CCC(C(N)=O)CC3)s2)cc1` [Example 133, 1-(5-P-Tolyl-1,3,4-Thiadiazol-2-yl)Piperidine-4-Carboxamide]: in the series on SMN2-luciferase reporter, the “Curve Class” value is on record as 1.2 and the “Increased SMN2 activity” value is given as 54%.

Take `NC(=O)C1CCN(c2nc(-c3ccc(-c4ccccc4)cc3)cs2)CC1` [Example 28, 1-(4-(Biphenyl-4-yl)Thiazol-2-yl)Piperidine-4-Carboxamide]: in the series on SMN2-luciferase reporter, the “Curve Class” value is 2.2 and the “Increased SMN2 activity” value was found to be 58.07%.
